{"source": "patent US4337265A", "about": "“Cyclohepta[b]pyrrole derivatives” (Ayerst, McKenna & Harrison Inc., priority 1981, dated 1982)", "key": {"[1]": {"target": "T1, aldose reductase (Bos taurus, UniProt P16116)", "T1 construct": "preparation of the enzyme from bovine lens; from tissue; host or cells: bovine lens", "assay": "in vitro aldose reductase inhibition (modified Hayman and Kinoshita procedure; enzyme from bovine lens)", "type": "biochemical", "conditions": "read-out: % Inhibition At Different Molar Concentrations (in vitro); for inhibition at 10 µM: molar concentration 10^-5; for inhibition at 1 µM: molar concentration 10^-6; for inhibition at 0.1 µM: molar concentration 10^-7", "protocol": "In the present case the procedure of Hayman and Kinoshita is modified in that the final chromatography step is omitted in the preparation of the enzyme from bovine lens. The following results were obtained when the foregoing listed compounds of formula I were evaluated in the above in vitro test."}, "[2]": {"tested_on": "aldose reductase", "conditions": "literature report; cited from earlier work"}, "[3]": {"assay": "hygroscopicity of the salt", "type": "physicochemical", "conditions": "disodium salt"}}}
{"smiles": "O=C(O)C[n+]1cc(C(=O)O)c2cccccc1-2", "note": "[3-Carboxy-1-(carboxymethyl)-cyclohepta[b]pyrrolium Chloride]", "values": [{"measurement": "inhibition at 10 µM", "setting": "[1]", "result": 80, "unit": "%"}, {"measurement": "inhibition at 1 µM", "setting": "[1]", "result": 37, "unit": "%"}, {"measurement": "inhibition at 0.1 µM", "setting": "[1]", "result": 13, "unit": "%"}]}
{"smiles": "NC(=O)c1c2cccccc-2n(CC(=O)O)c1=O", "note": "[Example 13, 3-(Aminocarbonyl)-1,2-dihydro-2-oxocyclohepta[b]pyrrole-1-acetic Acid]", "values": [{"measurement": "inhibition at 10 µM", "setting": "[1]", "result": 73, "unit": "%"}, {"measurement": "inhibition at 1 µM", "setting": "[1]", "result": 28, "unit": "%"}, {"measurement": "inhibition at 0.1 µM", "setting": "[1]", "result": 7, "unit": "%"}]}
{"smiles": "N#Cc1c2cccccc-2n(CC(=O)O)c1=O", "note": "[Example 12, 3-Cyano-1,2-dihydro-2-oxocyclohepta[b]pyrrole-1-acetic Acid]", "values": [{"measurement": "inhibition at 10 µM", "setting": "[1]", "result": 88, "unit": "%"}, {"measurement": "inhibition at 1 µM", "setting": "[1]", "result": 82, "unit": "%"}, {"measurement": "inhibition at 0.1 µM", "setting": "[1]", "result": 48, "unit": "%"}]}
{"smiles": "CC(=O)c1c2cccccc-2n(CC(=O)O)c1=O", "note": "[Example 7, 3-Acetyl-1,2-dihydro-2-oxocyclohepta[b]pyrrole-1-acetic Acid]", "values": [{"measurement": "inhibition at 10 µM", "setting": "[1]", "result": 76, "unit": "%"}, {"measurement": "inhibition at 1 µM", "setting": "[1]", "result": 26, "unit": "%"}, {"measurement": "inhibition at 0.1 µM", "setting": "[1]", "result": 3, "unit": "%"}]}
{"smiles": "CC(=O)c1c2ccc(Cl)ccc-2n(CC(=O)O)c1=O", "note": "[Example 11, 3-Acetyl-6-chloro-1,2-dihydro-2-oxocyclohepta[b]pyrrole-1-acetic Acid]", "values": [{"measurement": "inhibition at 10 µM", "setting": "[1]", "result": 85, "unit": "%"}, {"measurement": "inhibition at 1 µM", "setting": "[1]", "result": 52, "unit": "%"}, {"measurement": "inhibition at 0.1 µM", "setting": "[1]", "result": 11, "unit": "%"}]}
{"smiles": "CCOC(=O)c1c2ccc(Cl)ccc-2n(CC(=O)O)c1=O", "note": "[Example 10, 6-Chloro-3-(ethoxycarbonyl)-1,2-dihydro-2-oxocyclohepta[b]pyrrole-1-acetic Acid]", "values": [{"measurement": "inhibition at 10 µM", "setting": "[1]", "result": 76, "unit": "%"}, {"measurement": "inhibition at 1 µM", "setting": "[1]", "result": 34, "unit": "%"}, {"measurement": "inhibition at 0.1 µM", "setting": "[1]", "result": 9, "unit": "%"}]}
{"smiles": "O=C(O)Cn1c2ccc(Cl)ccc-2c(C(=O)O)c1=O", "note": "[Example 9, 3-Carboxy-6-chloro-1,2-dihydro-2-oxocyclohepta[b]pyrrole-1-acetic Acid]", "values": [{"measurement": "inhibition at 10 µM", "setting": "[1]", "result": 85, "unit": "%"}, {"measurement": "inhibition at 1 µM", "setting": "[1]", "result": 78, "unit": "%"}, {"measurement": "inhibition at 0.1 µM", "setting": "[1]", "result": 36, "unit": "%"}]}
{"smiles": "CCOC(=O)c1c2cccccc-2n(CC(=O)O)c1=O", "note": "[Example 4, 3-(Ethoxycarbonyl)-1,2-dihydro-2-oxocyclohepta[b]pyrrole-1-acetic Acid]", "values": [{"measurement": "inhibition at 10 µM", "setting": "[1]", "result": 73, "unit": "%"}, {"measurement": "inhibition at 1 µM", "setting": "[1]", "result": 26, "unit": "%"}]}
{"smiles": "CC(C)(C)C(=O)OCOC(=O)Cn1c2cccccc-2c(C(=O)OCOC(=O)C(C)(C)C)c1=O", "note": "[Example 6, 1,2-Dihydro-3-[(2,2-dimethyl-1-oxopropoxy)methoxycarbonyl]-2-oxo-cyclohepta[b]pyrrole-1-acetic Acid (2,2-Dimethyl-1-oxopropoxy)methyl Ester]", "values": [{"measurement": "inhibition at 10 µM", "setting": "[1]", "result": 75, "unit": "%"}, {"measurement": "inhibition at 1 µM", "setting": "[1]", "result": 44, "unit": "%"}, {"measurement": "inhibition at 0.1 µM", "setting": "[1]", "result": 9, "unit": "%"}]}
{"smiles": "O=C(O)Cn1c2cccccc-2c(C(=O)O)c1=S", "note": "[Example 5, 3-Carboxy-1,2-dihydro-2-thioxocyclohepta[b]pyrrole-1-acetic Acid]", "values": [{"measurement": "inhibition at 10 µM", "setting": "[1]", "result": 93, "unit": "%"}, {"measurement": "inhibition at 1 µM", "setting": "[1]", "result": 85, "unit": "%"}, {"measurement": "inhibition at 0.1 µM", "setting": "[1]", "result": 47, "unit": "%"}]}
{"smiles": "O=C(O)CN1C(=O)c2cccc3cccc(c23)C1=O", "note": "[1,3-Dioxo-1H-benz[de]isoquinoline-2(3H)-acetic acid]", "values": [{"measurement": "aldose reductase inhibition (in words)", "setting": "[2]", "result": "effective inhibitor of aldose reductase"}]}
{"smiles": "O=C(O)Cn1c2cccccc-2cc1=O", "note": "[Example 3, 1,2-Dihydro-2-oxocyclohepta[b]pyrrole-1-acetic Acid]", "values": [{"measurement": "inhibition at 10 µM", "setting": "[1]", "result": 80, "unit": "%"}, {"measurement": "inhibition at 1 µM", "setting": "[1]", "result": 45, "unit": "%"}, {"measurement": "inhibition at 0.1 µM", "setting": "[1]", "result": 9, "unit": "%"}]}
{"smiles": "O=C1NC(=O)[C@@]2(CCOc3ccc(F)cc32)N1", "note": "[sorbinil, (S)-6-Fluoro-2,3-dihydrospiro(4H-1-benzopyran-4,4'-imidazolidine)-2',5'-dione]", "values": [{"measurement": "aldose reductase inhibition (in words)", "setting": "[2]", "result": "aldose reductase inhibiting properties"}]}
{"smiles": "CCc1c2cccccc-2n(CC(=O)O)c1=O", "note": "[Example 8, 3-Ethyl-1,2-dihydro-2-oxocyclohepta[b]pyrrole-1-acetic Acid]", "values": [{"measurement": "inhibition at 10 µM", "setting": "[1]", "result": 60, "unit": "%"}, {"measurement": "inhibition at 1 µM", "setting": "[1]", "result": 19, "unit": "%"}]}
{"smiles": "O=C(O)Cn1c2cccccc-2c(C(=O)O)c1=O", "note": "[Example 2, 3-Carboxy-1,2-dihydro-2-oxocyclohepta[b]pyrrole-1-acetic Acid]", "values": [{"measurement": "inhibition at 10 µM", "setting": "[1]", "result": 88, "unit": "%"}, {"measurement": "inhibition at 1 µM", "setting": "[1]", "result": 82, "unit": "%"}, {"measurement": "inhibition at 0.1 µM", "setting": "[1]", "result": 44, "unit": "%"}]}
{"smiles": "CN(CC(=O)O)C(=O)c1c2ccc(Cl)ccc-2n(CC(=O)O)c1=O", "note": "[Example 15, 6-Chloro-3-[(N-carboxymethyl-N-methyl)amino]carbonyl-1,2-dihydro-2-oxocyclohepta[b]pyrrole-1-acetic Acid]", "values": [{"measurement": "hygroscopicity", "setting": "[3]", "result": "hydroscopic"}]}
